Assay results from patent US11999742B2, “Substituted pyrrolo[1,2-b]pyridazines as anthelmintics” (BOEHRINGER INGELHEIM VETMEDICA GMBH, priority 2021, dated 2024).

What was measured:
[1] = tested on: Dirofilaria immitis (JYD-34 isolate); experiment: In vivo efficacy against resistant JYD-34 isolate in immune-deficient NSG mice; settings: po, 1080 h, read-out: efficacy (live D. immitis larvae recovered), NSG mice, oral 25 mg/kg on Day 1, 15 and 30, count at Day 45
[2] = tested on: Dirofilaria immitis (JYD-34 isolate); experiment: In vivo efficacy against resistant JYD-34 isolate in beagle dogs (Biological Example 6); settings: necropsy day 120; for % Efficacy / Geometric Mean Live Heartworm Count: beagle dogs, JYD-34 isolate, 5 mg/kg oral, four times at monthly intervals (Days 0, 27, 55, 84); for efficacy against adult heartworm compared with Interceptor: beagles, oral 5 mg/kg four times at monthly intervals
[3] = tested on: Dirofilaria immitis (JYD-34 isolate); experiment: In vivo efficacy against resistant JYD-34 isolate in beagle dogs (Biological Example 8); settings: for efficacy at preventing infections with adult heartworm: beagles
[4] = tested on: Dirofilaria immitis (JYD-34 isolate); experiment: In vivo efficacy at two dosages against resistant JYD-34 isolate in beagle dogs (Biological Example 7); settings: for % Efficacy / Geometric Mean Live Heartworm Count: beagle dogs, JYD-34 isolate; for efficacy against adult heartworm: beagles
[5] = beagle dogs, JYD-34 isolate, 5 mg/kg monthly for four months
[6] = 5 mg/kg single dose monthly for four months
[7] = 10 mg/kg (over 2 consecutive days, 5 mg/kg each) monthly for four months
[8] = 5 mg/kg monthly for four months on two consecutive days

Cc1cc2c(C(C)(C)C)c(C(=O)N[C@H]3CCOc4ccccc43)cnn2c1-c1cc(Cl)cc(Cl)c1 [Compound A464]
inhibition in vivo at 25 mg/kg [1]: 70 to 90%
% Efficacy [2]: 38.2%
Geometric Mean Live Heartworm Count [2]: 16.7
efficacy against adult heartworm compared with Interceptor [2]: more effective than the commercial product Interceptor™

Cc1cc2c(C(C)C)c(C(=O)N[C@H]3CCOc4ccccc43)cnn2c1-c1cc(Cl)cc(Cl)c1 [Compound A465, 7-(3,5-dichlorophenyl)-N-[(4S)-3,4-dihydro-2H-1-benzopyran-4-yl]-6-methyl-4-(propan-2-yl)pyrrolo[1,2-b]pyridazine-3-carboxamide]
inhibition in vivo at 25 mg/kg [1]: 50 to 70%

Cc1cc2c(C(C)(C)C)c(C(=O)N[C@H]3CCOc4ccccc43)cnn2c1-c1cc(F)cc(F)c1F [Compound A471]
% Efficacy [2]: 39.0%
Geometric Mean Live Heartworm Count [2]: 16.5
efficacy against adult heartworm compared with Interceptor [2]: more effective than the commercial product Interceptor™

Cc1cc2c(C(C)(C)C)c(C(=O)N[C@H]3CCOc4ccccc43)cnn2c1-c1cc(Cl)cc(Cl)c1Cl [Compound A472]
inhibition in vivo at 25 mg/kg [1]: > 90%
% Efficacy [3, 5]: 100.0%
Live Heartworm Count (geo. mean) [3, 5]: 0
efficacy at preventing infections with adult heartworm ([3]; 5 mg/kg body weight monthly for four months): 100%

CN(C)c1c(C(=O)N[C@H]2CCOc3ccccc32)cnn2c(-c3cc(Cl)cc(Cl)c3Cl)c(Cl)cc12 [Compound A473]
inhibition in vivo at 25 mg/kg [1]: > 90%

Cc1cc2c(C(C)(C)C)c(C(=O)N[C@H]3CCOc4ccccc43)cnn2c1-c1cc(F)cc(Cl)c1Cl [Compound A481, 4-tert-butyl-7-(2,3-dichloro-5-fluorophenyl)-N-[(4S)-3,4-dihydro-2H-1-benzopyran-4-yl]-6-methylpyrrolo[1,2-b]pyridazine-3-carboxamide]
inhibition in vivo at 25 mg/kg [1]: 70 to 90%
% Efficacy [4, 6]: 64.2%
Geometric Mean Live Heartworm Count [4, 6]: 11.3
% Efficacy [4, 7]: 98.0%
Geometric Mean Live Heartworm Count [4, 7]: 0.6
efficacy against adult heartworm [4, 8]: about 98%

CC(C)(C)c1c(C(=O)N[C@H]2CCOc3ccccc32)cnn2c(-c3c(F)cc(F)cc3F)c(Cl)cc12 [Compound A484]
inhibition in vivo at 25 mg/kg [1]: 50 to 70%

CC(C)(C)c1c(C(=O)N[C@H]2CCOc3ccccc32)cnn2c(-c3cc(F)cc(F)c3F)c(Cl)cc12 [Compound A486]
inhibition in vivo at 25 mg/kg [1]: 70 to 90%

Cc1cc2c(C(C)C)c(C(=O)N[C@H]3CCOc4ccccc43)cnn2c1-c1cc(F)cc(Cl)c1Cl [Compound A489]
inhibition in vivo at 25 mg/kg [1]: 70 to 90%

Cc1cc2c(N3CCOCC3)c(C(=O)N[C@H]3CCOc4ccccc43)cnn2c1-c1cc(F)cc(F)c1F [Compound A491]
inhibition in vivo at 25 mg/kg [1]: < 50%

Cc1cc2c(N(C)C)c(C(=O)N[C@H]3CCOc4ccccc43)cnn2c1-c1cc(F)cc(Cl)c1Cl [Compound A493, 7-(2,3-dichloro-5-fluorophenyl)-N-[(4S)-3,4-dihydro-2H-1-benzopyran-4-yl]-4-(dimethylamino)-6-methylpyrrolo[1,2-b]pyridazine-3-carboxamide]
inhibition in vivo at 25 mg/kg [1]: > 90%
% Efficacy [4, 6]: 99.0%
Geometric Mean Live Heartworm Count [4, 6]: 0.3
% Efficacy [4, 7]: 100.0%
Geometric Mean Live Heartworm Count [4, 7]: 0
efficacy against adult heartworm [4, 8]: 100%
efficacy against adult heartworm ([4]; one single dosage of 5 mg/kg monthly for four months): 99%

Cc1cc2c(C(C)(C)C)c(C(=O)NN3CCOc4ccccc43)cnn2c1-c1cc(F)cc(Cl)c1Cl [Compound A495]
inhibition in vivo at 25 mg/kg [1]: 50 to 70%

Cc1cc2c(N3CCOCC3)c(C(=O)N[C@H]3CCOc4ccccc43)cnn2c1-c1cc(Cl)cc(Cl)c1Cl [Compound A501]
inhibition in vivo at 25 mg/kg [1]: 70 to 90%

CC(C)(C)c1c(C(=O)N[C@H]2CCOc3ccccc32)cnn2c(-c3cc(F)cc(Cl)c3Cl)c(Cl)cc12 [Compound A502, 4-tert-butyl-6-chloro-7-(2,3-dichloro-5-fluorophenyl)-N-[(4S)-3,4-dihydro-2H-1-benzopyran-4-yl]pyrrolo[1,2-b]pyridazine-3-carboxamide]
inhibition in vivo at 25 mg/kg [1]: 70 to 90%

Cc1cc2c(N3CC(F)(F)C3)c(C(=O)N[C@H]3CCOc4ccccc43)cnn2c1-c1cc(F)cc(Cl)c1Cl [Compound A504]
inhibition in vivo at 25 mg/kg [1]: > 90%

O=C(N[C@H]1CCOc2ccccc21)c1cnn2c(-c3cc(F)cc(Cl)c3Cl)c(Cl)cc2c1N1CC(F)(F)C1 [Compound A507]
inhibition in vivo at 25 mg/kg [1]: > 90%

CC(C)(C)c1c(C(=O)N[C@H]2CCOc3ccccc32)cnn2c(-c3cc(Cl)cc(Cl)c3Cl)c(Cl)cc12 [Compound A522]
inhibition in vivo at 25 mg/kg [1]: > 90%

Cc1cc2c(C(C)(C)C)c(C(=O)N[C@H]3CCOc4ccccc43)cnn2c1-c1cc(F)cc(F)c1F [Compound A566]
inhibition in vivo at 25 mg/kg [1]: 70 to 90%

milbemycin oxime [reference compound]
efficacy at preventing infections with adult heartworm ([3]; Interceptor (milbemycin oxime) positive control group): 16.6%
